{"source": "patent US9128108B2", "about": "“Mephedrone detection” (Randox Laboratories Limted, priority 2010, dated 2015)"}
{"system": "raised antibody (polyclonal IgG raised against Immunogen 1, Hapten 1-BSA)", "assay": "Competitive ELISA with Hapten 1-HRP conjugate confirming binding of raised antibody", "set-up": "species or system sheep", "conditions": "competitive immunoassay at different antibody and conjugate concentrations", "procedure": "(§1) The process of developing an immunoassay is well known to the person skilled in the art. Briefly, for a competitive immunoassay in which the target analyte is a non-immunogenic molecule such as a hapten, the following process is conducted: antibodies are produced by immunising an animal, preferably a mammalian animal, by repeated administration of an immunogen. The serum from the immunised animal is collected when the antibody titre is sufficiently high. A conjugate is added to a sample containing the target analyte and the raised antibodies, and the conjugate and analyte compete for binding to the antibodies. The process may comprise fixing said serum antibodies to a backing substrate such as a polystyrene solid support or a biochip. The antibodies can be polyclonal or monoclonal, monoclonal antibodies being obtainable from polyclonal sera using standard techniques. The signal emitted in the immunoassay is proportionate to the amount of conjugate bound to the antibodies which in turn is inversely proportionate to the analyte concentration. The signal can be detected or quantified by comparison with a calibrator.\n(§2) Hapten 1 was conjugated to bovine serum albumin (BSA). The resulting immunogen (Immunogen 1) was administered to adult sheep on a monthly basis to provide target-specific polyclonal antisera. IgG was extracted from the antisera via caprylic acid/ammonium sulphate precipitation of immunoglobulin. Microtitre plates (Thermo Scientific, 468667) were coated with antibody (125 μl) in coating buffer (10 mM Tris pH 8.5) at 37° C. for 2 hours. The plates were then washed 4 times over 10 minutes with working strength TBST. 50 μl of sample/standard (Methcathinone, Sigma M-5037; Cathinone, Sigma C-3196 and Mephedrone, Randox LK973) was added to the appropriate wells in triplicate, followed by 75 μl of Hapten 1-HRP conjugate and incubated at 25° C. for 1 hour. The plates were then washed and 125 μl of TMB (Randox, 4380-15) was added to each well and left at room temperature for 20 mins in the dark. The reaction was stopped using 125 μl of 0.2M sulphuric acid. The absorbances were read at 450 nm with an ELISA microplate reader (BIO-TEK Instruments, Elx800) and the means calculated.\n(§3) Competitive immunoassay results at different antibody and conjugate concentrations show the raised antibody binds to mephedrone, methcathinone and cathinone (Table 1)."}
{"smiles": "CNC(C)C(=O)c1ccccc1", "note": "(stereo not drawn) [Methcathinone, 2-methylamino-1-phenylpropan-1-one]", "binding of raised antibody (in words)": "binds"}
{"smiles": "C[C@H](N)C(=O)c1ccccc1", "note": "[Cathinone]", "binding of raised antibody (in words)": "binds"}
{"smiles": "CNC(C)C(=O)c1ccc(C)cc1", "note": "(racemic) [Mephedrone, (RS)-2-methylamino-1-(4-methylphenyl)propan-1-one]", "binding of raised antibody (in words)": "binds"}
{"system": "raised antibody (polyclonal IgG raised against Immunogen 1, Hapten 1-BSA)", "assay": "Competitive ELISA with Hapten 1-HRP conjugate confirming binding of raised antibody", "set-up": "species or system sheep", "conditions": "standard 100 ng/ml; antibody 1.25 ug/ml; Hapten 1-HRP conjugate dilution 1/8K; absorbance at 450 nm; zero absorb. 1.986", "procedure": "as §1, §2, §3"}
{"smiles": "CNC(C)C(=O)c1ccccc1", "note": "(stereo not drawn) [Methcathinone, 2-methylamino-1-phenylpropan-1-one]", "Standard Absorb.": 0.169}
{"smiles": "C[C@H](N)C(=O)c1ccccc1", "note": "[Cathinone]", "Standard Absorb.": 1.515}
{"smiles": "CNC(C)C(=O)c1ccc(C)cc1", "note": "(racemic) [Mephedrone, (RS)-2-methylamino-1-(4-methylphenyl)propan-1-one]", "Standard Absorb.": 0.087}
{"system": "raised antibody (polyclonal IgG raised against Immunogen 1, Hapten 1-BSA)", "assay": "Competitive ELISA with Hapten 1-HRP conjugate confirming binding of raised antibody", "set-up": "species or system sheep", "conditions": "standard 100 ng/ml; antibody 1.25 ug/ml; Hapten 1-HRP conjugate dilution 1/8K; drop of absorbance versus zero standard", "procedure": "as §1, §2, §3", "units": {"% Drop": "%"}}
{"smiles": "CNC(C)C(=O)c1ccccc1", "note": "(stereo not drawn) [Methcathinone, 2-methylamino-1-phenylpropan-1-one]", "% Drop": 91.5}
{"smiles": "C[C@H](N)C(=O)c1ccccc1", "note": "[Cathinone]", "% Drop": 23.7}
{"smiles": "CNC(C)C(=O)c1ccc(C)cc1", "note": "(racemic) [Mephedrone, (RS)-2-methylamino-1-(4-methylphenyl)propan-1-one]", "% Drop": 95.6}
{"system": "raised antibody (polyclonal IgG raised against Immunogen 1, Hapten 1-BSA)", "assay": "Competitive ELISA with Hapten 1-HRP conjugate confirming binding of raised antibody", "set-up": "species or system sheep", "conditions": "standard 100 ng/ml; antibody 5 ug/ml; Hapten 1-HRP conjugate dilution 1/4K; absorbance at 450 nm; zero absorb. 1.961", "procedure": "as §1, §2, §3"}
{"smiles": "CNC(C)C(=O)c1ccccc1", "note": "(stereo not drawn) [Methcathinone, 2-methylamino-1-phenylpropan-1-one]", "Standard Absorb.": 0.205}
{"smiles": "C[C@H](N)C(=O)c1ccccc1", "note": "[Cathinone]", "Standard Absorb.": 1.600}
{"smiles": "CNC(C)C(=O)c1ccc(C)cc1", "note": "(racemic) [Mephedrone, (RS)-2-methylamino-1-(4-methylphenyl)propan-1-one]", "Standard Absorb.": 0.120}
{"system": "raised antibody (polyclonal IgG raised against Immunogen 1, Hapten 1-BSA)", "assay": "Competitive ELISA with Hapten 1-HRP conjugate confirming binding of raised antibody", "set-up": "species or system sheep", "conditions": "standard 100 ng/ml; antibody 5 ug/ml; Hapten 1-HRP conjugate dilution 1/4K; drop of absorbance versus zero standard", "procedure": "as §1, §2, §3", "units": {"% Drop": "%"}}
{"smiles": "CNC(C)C(=O)c1ccccc1", "note": "(stereo not drawn) [Methcathinone, 2-methylamino-1-phenylpropan-1-one]", "% Drop": 89.5}
{"smiles": "C[C@H](N)C(=O)c1ccccc1", "note": "[Cathinone]", "% Drop": 18.4}
{"smiles": "CNC(C)C(=O)c1ccc(C)cc1", "note": "(racemic) [Mephedrone, (RS)-2-methylamino-1-(4-methylphenyl)propan-1-one]", "% Drop": 93.9}
